Reference: patent US6191147A, “Pyrazole compounds and uses thereof” (PPD Discovery, Inc., priority 1999, dated 2001)

Columns and labels:
FPTase = FPTase (Homo sapiens, UniProt P49354+P49356); test: FPTase inhibition ([3H]FPP transfer to H-Ras); type: biochemical; settings: 40 μM test compound (unless otherwise indicated)
Procedure: (§1) For those assays, the reaction mixtures contained the following components in 50 μl:0.25 μM [^3 H]GGPP (sp. act. 8-10 Ci/mmol), 2.5 μM Ras-CVLL, 50 mM Tris-Cl, pH 7.7, 20 mM KCl, 5 mM MgCl2, 5 μM ZnCl2, 1 mM DTT, 0.5 mM Zwittergent 3-14 and the desired amount of the compound to be tested for inhibitory potential. After pre-equilibrating the assay mixture at 30° C. in the absence of the enzyme, the reaction was initiated by addition of the enzyme (75 ng). Following an about 10 minute incubation at about 30° C., the reactions were terminated by addition of about 0.5 ml of about 4% SDS. About 40 mg of bovine brain membranes was added to the samples to enhance recovery during precipitation. […] Reactions were never allowed to proceed to more than 10% completion based on the limiting substrate. Assays for the inhibition studies of FPTase were performed analogous the GGPTase I inhibition studies, except [^3 H]GGPP was replaced with 0.25 μM of [^3 H]FPP (sp. act. 8-10 ci/mmol) and Ras-CVLL was replaced with 1 μM H-Ras.
(§2) Using the method described above, the GGPTase I and FPTase inhibitory activities of some of the compounds of the present invention were measured. The results of these measurements are provided in Tables I-VI, wherein a value of 100 indicates 100% GGPTase I or FPTase inhibition. Unless otherwise indicated, 40 μM concentration of a test compound is used. The term "alpha" refers to the position of R^1 substituent (e.g., 3,4-dichlorophenyl in Table I) on the nitrogen atom in the pyrazole ring that results in the shortest retention time using the HPLC gradient reported above, where as the term "beta" refers to the position of R^1 substituent (e.g., 3,4-dichlorophenyl in Table I) on the nitrogen atom in the pyrazole ring that results in a longer HPLC retention time than the alphα-regioisomer. Mixtures of regioisomers and/or enantiomers are used unless indicated otherwise using the above alpha and beta notations. The term "N/D" means not determined. In Tables I-VI, R^6 group indicated by *1 refers to {[N"-(1'-oxo-1'-pyrid-3-yl)methyl]-N'-carbamoyl}-3-aminopropyl moiety.

GGPTase I = molecular target: T1, GGPTase I (Rattus norvegicus, UniProt P53610+Q04631); test: GGPTase I inhibition ([3H]GGPP transfer to Ras-CVLL); type: biochemical; settings: 40 μM test compound (unless otherwise indicated)
T1 construct: made in house; host or cells: Sf9 insect cells (recombinant baculovirus, co-infection)
Procedure: as §1, §2

Structure (SMILES) | inhibition at 40 µM (FPTase) [%] | inhibition at 40 µM (GGPTase I) [%]
NC(=O)CNC(=O)CCCCc1cc(-c2cccnc2)n[nH]1 [IX, R^6 = HYDROGEN, R^1 = HYDROGEN] | 58 | 
CS(=O)(=O)CCC(NC(=O)CCc1cc(-c2cccnc2)n[nH]1)C(N)=O (centres unmarked) | 78 | 
NC(=O)C(CCCNC(=O)NC(=O)c1cccnc1)NC(=O)CCc1cc(-c2cccnc2)n[nH]1 (centres unmarked) [X, R^6 = *1, R^1 = HYDROGEN] | 50 | 
CC(C)C(NC(=O)CCc1cc(-c2cccnc2)n[nH]1)C(N)=O (centres unmarked) [X, R^6 = ISOPROPYL, R^1 = HYDROGEN] | 72 | 
NC(=O)C(Cc1ccc(O)cc1)NC(=O)CCc1cc(-c2cccnc2)n[nH]1 (centres unmarked) |  | 24
NC(=O)C(Cc1c[nH]c2ccccc12)NC(=O)CCc1cc(-c2cccnc2)n[nH]1 (centres unmarked) | 83 | 24
NC(=O)C(Cc1ccccc1)NC(=O)CCCCc1cc(-c2cccnc2)n[nH]1 (centres unmarked) [IX, R^6 = BENZYL, R^1 = HYDROGEN] |  | 27
NC(=O)C(CCCNC(=O)NC(=O)c1cccnc1)NC(=O)CCCCc1cc(-c2cccnc2)n[nH]1 (centres unmarked) [IX, R^6 = *1, R^1 = HYDROGEN] | 57 | 
CC(C)C(NC(=O)CCCCc1cc(-c2cccnc2)n[nH]1)C(N)=O (centres unmarked) [IX, R^6 = ISOPROPYL, R^1 = HYDROGEN] | 78 | 33
